Experimental data reported in patent US20240174727A1, “LONG-ACTING NATRIURETIC PEPTIDES AND USES THEREOF” (Eli Lilly and Company, priority 2022, published 2024).
Where two headings read alike, the source gives them in different places. Numbered stars: 1 amine (or outer) side, 2 acyl side, 3 side chain; on linkers, the order of the positions; unused ones are H or OH. Bridge positions count the residues as written; N and C are the ends. Square brackets hold non-standard residues; d marks the D form. Peptide text beside a SMILES is read from it. * marks the point of attachment. PEG24 = NCCOCCOCCOCCOCCOCCOCCOCCOCCOCCOCCOCCOCCOCCOCCOCCOCCOCCOCCOCCOCCOCCOCCOCCOCCC(=O)O; C20 diacid = O=C(O)CCCCCCCCCCCCCCCCCCC(=O)*; γGlu = O=C(O)[C@H](CCC(=O)[*:2])N[*:1]; 4Pal = N[C@@H](Cc1ccncc1)C(=O)O; Aib = CC(C)(N)C(=O)O; CH2 = C([*:1])[*:2]

Target: T1, human NPRA (Homo sapiens, UniProt P16066)
T1 construct: Full-Length cDNA Cloning and Generation of Cell Lines Overexpressing Natriuretic Peptide Receptors (NPRs); expressed in transfected cells; host or cells: Jump-in T-Rex HEK293 cells, pJTI R4 CMV-TO MCS pA vector, tetracycline induction
T1 sequence (P16066 33-1061): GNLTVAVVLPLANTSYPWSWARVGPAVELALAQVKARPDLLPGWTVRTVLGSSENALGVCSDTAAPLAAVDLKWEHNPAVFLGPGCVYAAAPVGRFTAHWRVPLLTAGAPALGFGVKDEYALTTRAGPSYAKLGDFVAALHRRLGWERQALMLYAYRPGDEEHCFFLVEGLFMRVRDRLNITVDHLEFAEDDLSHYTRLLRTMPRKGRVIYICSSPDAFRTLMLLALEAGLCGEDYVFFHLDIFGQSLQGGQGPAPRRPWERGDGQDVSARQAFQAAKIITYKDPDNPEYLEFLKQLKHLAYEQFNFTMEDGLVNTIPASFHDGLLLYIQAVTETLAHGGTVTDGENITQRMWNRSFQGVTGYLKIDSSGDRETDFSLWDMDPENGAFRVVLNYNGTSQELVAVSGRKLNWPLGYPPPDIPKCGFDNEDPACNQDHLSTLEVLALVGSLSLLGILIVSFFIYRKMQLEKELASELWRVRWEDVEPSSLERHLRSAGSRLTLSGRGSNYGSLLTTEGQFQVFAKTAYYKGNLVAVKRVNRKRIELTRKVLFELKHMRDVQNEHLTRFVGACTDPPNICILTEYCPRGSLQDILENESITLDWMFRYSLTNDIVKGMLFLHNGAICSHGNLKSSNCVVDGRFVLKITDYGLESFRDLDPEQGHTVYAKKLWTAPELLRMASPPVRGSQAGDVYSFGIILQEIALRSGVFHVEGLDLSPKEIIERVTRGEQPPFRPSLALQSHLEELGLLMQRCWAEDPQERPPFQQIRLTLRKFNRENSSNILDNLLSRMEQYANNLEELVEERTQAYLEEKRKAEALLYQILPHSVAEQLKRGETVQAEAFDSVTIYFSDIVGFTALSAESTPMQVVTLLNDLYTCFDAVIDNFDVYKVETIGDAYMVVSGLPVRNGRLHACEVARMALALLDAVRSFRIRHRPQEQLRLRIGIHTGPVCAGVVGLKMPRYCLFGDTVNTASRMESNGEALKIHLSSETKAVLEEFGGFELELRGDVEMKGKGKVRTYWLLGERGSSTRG
Experiment: Human NPRA cGMP activity assay (HTRF) in HEK293 cells overexpressing NPRA
Assay type: cell-based
Procedure: All sequences were verified by full-length sequencing performed by ACGT DNA Sequencing Services (Wheeling, IL). The target cDNA was cloned into pJTI R4 CMV-TO MCS pA vector and then co-transfected with pJT1R4 Int vector into Jump-in™ T-Rex™ HEK293 cells for mammalian inducible expression using Jump-in™ T-Rex™ HEK293 kit and Lipofectamine LTX and Plus Reagent following manufacturer's protocols, as briefly described below.
Jump-in™ T-Rex™ HEK293 cells were plated in a BioCOAT® poly-D-lysine coated 6-well plate (Becton Dickinson, cat no. 354413) at 1 million cells/well in 2 mL culture medium and incubated for 18 h at 37° C. and 5% CO2 to 50-70% confluence. A cDNA mix was made in a 50 mL tube by adding 1.5 μg target cDNA, 1.5 μg pJT1R4 Int vector, 3 μL Plus Reagent, and 300 μL Opti-MEM I sequentially into the tube. A reagent mix was made in a separate 50 mL tube by adding 7.5 μL Lipofectamine LTX into 300 μL Opti-MEM I. The mixtures were incubated for 5 min at room temperature. The cDNA mix was then transferred into the reagent mix, mixed well, and incubated for additional 30 min at room temperature. A 500 μL of cDNA/Lipofectamine complex was then transferred to the wells of the cell plate in which the culture medium was changed to 2 mL of transfection medium containing DMEM with 4.5 g/L D-glucose supplemented with 10% FBS-HI and 20 mM HEPES. Transfected cells were cultured for 48 h in an incubator at 37° C. and 5% CO2. A subclone or pool from each overexpressing cell line was maintained in culture medium with the addition of 2 mg/mL G418 sulfate for the clone selection based on its built-in resistance to G418 sulfate for at least 3 weeks with medium changed every 2-3 days.
NPRs were overexpressed in T-Rex™ HEK293 cells following the induction with 300 ng/mL tetracycline in culture medium for 48 h. Induced cell lines in an exponential growth phase were treated with 0.05% trypsin-EDTA for a few seconds at room temperature, harvested in cell medium containing FBS to neutralize the trypsin, counted, and cryopreserved at the density of 2 million cells/mL in cell preservation solution containing FBS-HI with 5% DMSO. Cryopreserved cells were stored at −80° C. for a few days prior to transferring to a liquid nitrogen tank. Induced cell lines were then used for suspension assays to measure the activity of polypeptides to stimulate cGMP production in cGMP assays or for the preparation of cell membranes to measure the binding activity of polypeptides in competitive radioligand binding assays, as described below.
Test polypeptides were added starting at 10 μM concentration and at 10-fold decreasing concentrations to obtain 8-point concentration-response curves (i.e., 10 μM to 1 pM). The quantity of cGMP generated was detected using HTRF® technology and normalized to maximum amount produced by 100 nM amidated rat ANP and the minimum amount produced by assay buffer. Detailed steps are outlined below.
Stock solutions of test polypeptides (2 mM) dissolved in DMSO were first diluted 100-fold in assay buffer containing HBSS with Ca^2+ and Mg^2+, 5 mM HEPES, 0.5 mM IBMX, and 0.1% BSA or 0.1% casein (pH 7.4). The polypeptides were further serially diluted in 1:10 dilution steps in assay buffer containing 0.1% BSA or 0.1% casein to generate 8-point 2× working stock solutions ranging from 20 μM to […].
A 10 μL cell suspension containing 4000 cells was plated in Costar® half-area white opaque 96-well plates (Corning, cat no. 3693). Then 10 μL of assay buffer (basal activity), 200 nM of amidated rat ANP (maximum activity) or 2× working stock solutions of test polypeptides were transferred into the plate. Final concentration of DMSO in each well was 0.5%. The plate was shaken for 15 sec and then incubated for 40 min at room temperature.
The cGMP generated was measured using cGMP kit following the manufacturer's directions, as described below.

[1] = cGMP Assay (EC50, pM) w/Casein hNPRA, assay buffer with 0.1% casein
[2] = assay buffer with 0.1% casein, read-out: cGMP Assay (EC50, pM) w/Casein hNPRA

| Molecule | EC50 [1] [pM] | EC50 [2] [pM] | further results |
| --- | --- | --- | --- |
| CC[C@H](C)[C@@H]1NC(=O)[C@H](CCCNC(=N)N)NC(=O)[C@H](CC(=O)O)NC(=O)[C@H]([C@@H](C)CC)NC(=O)[C@H](CCCNC(=N)N)NC(=O)[C@H](CCCCN)NC(=O)CNC(=O)[C@H](Cc2ccccc2)NC(=O)[C@@H](NC(=O)[C@H](CO)NC(=O)[C@H](CO)NC(=O)[C@H](CCCNC(=N)N)NC(=O)[C@@H]2CCCN2C(=O)[C@H](CCCCN)NC(=O)[C@H](CCC(=O)O)NC(=O)CNC(=O)[C@H](CCCCN)NC(=O)[C@H](CCC(=O)O)NC(=O)[C@H](CCCCN)NC(=O)[C@H](CCC(=O)O)NC(=O)[C@H](CCCCN)NC(=O)[C@H](CCC(=O)O)NC(=O)CC[C@H](NC(=O)CCCCCCCCCCCCCCCCCCC(=O)O)C(=O)O)CSCSC[C@@H](C(=O)N2CCC[C@H]2C(=O)N[C@@H](CO)C(=O)N[C@@H](Cc2ccccc2)C(=O)N[C@@H](CCCNC(=N)N)C(=O)N[C@@H](Cc2c[nH]cn2)C(=O)NCC(=O)N[C@@H](CO)C(=O)N2CCC[C@H]2C(=O)N[C@@H](CO)C(=O)N[C@@H](CO)C(=O)NCC(=O)N[C@@H](C)C(=O)N2CCC[C@H]2C(=O)N2CCC[C@H]2C(=O)N2CCC[C@H]2C(=O)N[C@@H](CO)C(N)=O)NC(=O)CNC(=O)[C@H](CC(C)C)NC(=O)CNC(=O)[C@H](CO)NC(=O)[C@H](Cc2ccc(O)cc2)NC(=O)[C@H](CCCN)NC(=O)CNC1=O [Example 135] | 497 |  | EC50 (cGMP Assay (EC50, pM) w/BSA hNPRA, assay buffer with 0.1% BSA): 104000 pM |
| CC[C@H](C)[C@@H]1NC(=O)[C@H](CCCNC(=N)N)NC(=O)[C@H](CC(=O)O)NC(=O)[C@H]([C@@H](C)CC)NC(=O)[C@H](CCCNC(=N)N)NC(=O)CNC(=O)[C@H](Cc2c[nH]cn2)NC(=O)[C@H](Cc2ccccc2)NC(=O)[C@@H](NC(=O)[C@H](CO)NC(=O)[C@H](CO)NC(=O)[C@H](CCCNC(=N)N)NC(=O)[C@H](CCCNC(=N)N)NC(=O)[C@H](Cc2c[nH]cn2)NC(=O)[C@H](CO)NC(=O)CNC(=O)[C@H](CCCCN)NC(=O)[C@H](CCC(=O)O)NC(=O)[C@H](CCCCN)NC(=O)[C@H](CCC(=O)O)NC(=O)[C@H](CCCCN)NC(=O)[C@H](CCC(=O)O)NC(=O)CC[C@H](NC(=O)CCCCCCCCCCCCCCCCCCC(=O)O)C(=O)O)CSSC[C@@H](C(=O)N[C@@H](CC(N)=O)C(=O)N[C@@H](CO)C(=O)N[C@@H](Cc2ccccc2)C(=O)N[C@@H](CCCNC(=N)N)C(=O)N[C@@H](Cc2c[nH]cn2)C(N)=O)NC(=O)CNC(=O)[C@H](CC(C)C)NC(=O)CNC(=O)[C@H](CO)NC(=O)[C@H](CCC(N)=O)NC(=O)[C@H](C)NC(=O)[C@H](Cc2c[nH]cn2)NC1=O [Example 16] ({C20 diacid-γGlu}-EKEKEKGSHRRSSCFHGRIDRIHAQSGLGCNSFRH-NH2; disulfide 14-30) |  | 807 |  |
| {C20 diacid-γGlu}-EKEKEKG[PEG24]S[4Pal]RRSSCFGGRIDRIGHQSGLGCPSFRHGGPPS[Aib]KPPPK-NH2 (linker 15-31 via CH2) [Example 84] |  | 1010 |  |
| CC[C@H](C)[C@@H]1NC(=O)[C@H](CCCNC(=N)N)NC(=O)[C@H](CC(=O)O)NC(=O)[C@H]([C@@H](C)CC)NC(=O)[C@H](CCCNC(=N)N)NC(=O)CNC(=O)[C@H](Cc2ccncc2)NC(=O)[C@H](Cc2ccccc2)NC(=O)[C@@H](NC(=O)[C@H](CO)NC(=O)[C@H](CO)NC(=O)[C@H](CCCNC(=N)N)NC(=O)[C@H](CCCNC(=N)N)NC(=O)[C@H](CC(C)C)NC(=O)[C@H](CO)NC(=O)CNC(=O)[C@H](CCCCN)NC(=O)[C@H](CCC(=O)O)NC(=O)[C@H](CCCCN)NC(=O)[C@H](CCC(=O)O)NC(=O)[C@H](CCCCN)NC(=O)[C@H](CCC(=O)O)NC(=O)CC[C@H](NC(=O)CCCCCCCCCCCCCCCCCCC(=O)O)C(=O)O)CSSC[C@@H](C(=O)N[C@@H](CC(N)=O)C(=O)N[C@@H](CO)C(=O)N[C@@H](Cc2ccccc2)C(=O)N[C@@H](CCCNC(=N)N)C(=O)N[C@@H](Cc2ccc(O)cc2)C(N)=O)NC(=O)CNC(=O)[C@H](CC(C)C)NC(=O)CNC(=O)[C@H](CO)NC(=O)[C@H](CCC(N)=O)NC(=O)[C@H](C)NC(=O)CNC1=O [Example 13] ({C20 diacid-γGlu}-EKEKEKGSLRRSSCF[4Pal]GRIDRIGAQSGLGCNSFRY-NH2; disulfide 14-30) |  |  | EC50 (assay buffer with 0.1% BSA, read-out: cGMP Assay (EC50, pM) w/BSA hNPRA): 145000 pM |
| CC[C@H](C)[C@@H]1NC(=O)[C@H](CCCNC(=N)N)NC(=O)[C@H](CC(=O)O)NC(=O)[C@H]([C@@H](C)CC)NC(=O)[C@H](CCCNC(=N)N)NC(=O)CNC(=O)CNC(=O)[C@H](Cc2ccccc2)NC(=O)[C@@H](NC(=O)[C@H](CO)NC(=O)[C@H](CO)NC(=O)[C@H](CCCNC(=N)N)NC(=O)[C@H](CCCNC(=N)N)NC(=O)[C@H](Cc2ccncc2)NC(=O)[C@H](CO)NC(=O)CNC(=O)[C@H](CCCCN)NC(=O)[C@H](CCC(=O)O)NC(=O)[C@H](CCCCN)NC(=O)[C@H](CCC(=O)O)NC(=O)[C@H](CCCCN)NC(=O)[C@H](CCC(=O)O)NC(=O)CC[C@H](NC(=O)CCCCCCCCCCCCCCCCCCC(=O)O)C(=O)O)CSSC[C@@H](C(=O)N[C@@H](CC(N)=O)C(=O)N[C@@H](CO)C(=O)N[C@@H](Cc2ccccc2)C(=O)N[C@@H](CCCNC(=N)N)C(=O)N[C@@H](Cc2ccncc2)C(N)=O)NC(=O)CNC(=O)[C@H](CC(C)C)NC(=O)CNC(=O)[C@H](CO)NC(=O)[C@H](CCC(N)=O)NC(=O)[C@H](C)NC(=O)CNC1=O [Example 15] ({C20 diacid-γGlu}-EKEKEKGS[4Pal]RRSSCFGGRIDRIGAQSGLGCNSFR[4Pal]-NH2; disulfide 14-30) |  | 912 |  |
| {C20 diacid-γGlu}-EKEKEKGEKGRSSCFGGRIDRIGHYSGLGCPSLRHGGPSSGAPPPS-NH2 (disulfide 14-30) [Example 51] | 361 |  |  |
